Literature values as cited in patent publication US6086864A, “Pharmaceutical formulations comprising polythiourea and methods of use thereof” (Merrell Pharmaceuticals Inc., priority 1997, dated 2000).

Experiments:
[1] = tested on: viral protein responsible for cell recognition; conditions: purified form of heparin
[2] = in vivo

heparin
inhibition of host cell infection [1]: limited inhibition of host cell infection
side effects [2]: hemorrhage and increased clot formation time as well as thrombocytopenia
